Drawing on PubChem BioAssay AID2006 (Sanford-Burnham Center for Chemical Genomics, 2009), this text covers IC50 for four molecules.

Molecules are shown by their SMILES.

Sequence of SUMO-conjugating enzyme UBC9 (Homo sapiens) (P63279 whole entry, looked up): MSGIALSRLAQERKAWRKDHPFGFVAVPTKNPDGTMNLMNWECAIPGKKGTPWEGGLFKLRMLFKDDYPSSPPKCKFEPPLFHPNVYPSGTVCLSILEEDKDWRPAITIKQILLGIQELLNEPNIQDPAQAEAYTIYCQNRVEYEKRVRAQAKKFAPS

The assay addresses SUMO-conjugating enzyme UBC9 (Homo sapiens) (UniProt P63279). As to the kind of experiment: inhibitors of in vitro SUMOylation cascade, primary screen, biochemical, HTRF, uHTS (AID 2006). The following applies: HTRF SUMOylation assay, SAE1/SAE2 + UBC9, in vitro. Background: In TR-FRET formats the signal depends on donor and acceptor labels being close together.
In the case of `O=C1NC(=Nc2ccc3ccccc3c2)S/C1=C/c1ccco1`, the IC50 (usually the point on the concentration scale where inhibition reaches its midpoint) is 14 µM.
In the case of `O=C(CN1C(=O)S/C(=C\c2ccccc2)C1=O)NNC(=O)c1ccccc1O` it was 37.9 µM.
Then `NS(=O)(=O)c1ccc(NC(=O)c2ccc(-c3ccccc3)cc2)cc1`, with 13.8 µM; and `O=C(O)c1ccc(/C=N/NC(=O)c2ccc(CN3c4cccc5cccc(c45)S3(=O)=O)cc2)cc1`, with 11.1 µM.
